As usually defined, the melting point is the temperature, or range, at which the solid turns liquid.

Melting point data for 78 compounds are collected here from a melting point compilation (Tetko et al.).

For the compound `COP(=S)(OC)Oc1ccc(Sc2ccc(OP(=S)(OC)OC)cc2)cc1`, the melting point was 30.3 °C. On to `CC1CC(=O)c2cc(F)ccc2O1` (stereo not drawn), for which the melting point is 71 °C.

`CN1C2CCC1C(C(=O)O)C(O)C2` (stereo not drawn): the melting point was 205 °C. Take `CCC(=O)c1ccc2ccccc2c1`: the melting point amounted to 60 °C. Under `CC(C)CC1Nc2cc(Cl)c(S(N)(=O)=O)cc2S(=O)(=O)N1` (stereo not drawn) stands 222 °C. The figure for `Cc1cc(C)c(I)c(C)c1` is 29 °C; for `O=C(O)c1csc(-c2ccc(C(F)(F)F)cc2)n1` it is 186 to 188 °C. Under `O=C(O)c1ccc(NC(=O)C(Cc2ccc(O)cc2)NC(=O)c2ccccc2)cc1` (stereo not drawn) stands 241 °C; under `Cc1c(C(=O)CCl)sc2ccc(Cl)cc12`, 158 to 160 °C. In turn, `COc1ccc(C=CC(=O)c2cccc(C(=O)C=Cc3ccc(OC)cc3)c2)cc1` came in with a melting point of 135 °C. The figure for `c1ccc(C2c3ccccc3-c3ccccc32)cc1` is 147 °C; for `Cc1ccc(C2(O)CCN(CCCC(=O)c3ccc(F)cc3)CC2)cc1` it is 118 °C; for `CCOC(=O)c1sc(SC)c2c1-c1ccccc1N(C)S2(=O)=O` it is 190 to 193 °C. Under `O=C(O)C=Cc1ccc(C=CC(=O)O)cc1` stands 300 °C; under `C=CC1CNC(=S)O1` (stereo not drawn), 50 °C.

For the compound `Cc1cc([N+](=O)[O-])c(N)c([N+](=O)[O-])c1`, the melting point worked out at 172 °C. Under `COc1ccc(C=NC2=NC(C(F)(F)F)N=N2)cc1` (stereo not drawn) stands 172 °C; under `Cc1nc(N)ccc1C#N`, 155 to 156 °C; under `Cc1nc2ccccc2c2c1C(=O)NC2=O`, 255 to 256 °C. Under `Cc1nc(C(=O)O)cs1` stands 148 to 149 °C; under `ClCc1csc(-c2cccs2)n1`, 52 to 56 °C; under `O=C(CBr)c1c(Cl)cc(C(F)(F)F)cc1Cl`, 46 to 48 °C. Under `BrC(Br)=Cc1ccccc1` stands 75 °C. The compound `CN(c1c(F)c(F)c(F)c(F)c1F)[N+](=O)[O-]` had a melting point of 39.5 °C.

As for `Cc1c(C(=O)Cl)oc2ccccc12`, the melting point was in the range of 70 to 74 °C. In turn, `CC(=O)OC[C@H]1O[C@@H](Oc2ccc(C)cc2)[C@H](OC(C)=O)[C@@H](OC(C)=O)[C@@H]1OC(C)=O` yielded a melting point of 125 to 126 °C.

Take `CC(C)(C)C=C=C=C=CC(C)(C)C`: the melting point was found to be 135 °C. The figure for `CCCC(NC(=O)C(C)N)C(=O)O` (mixture of isomers) is 240 to 242 °C; for `CC1CCC(C(C)C)C(OC(=O)C(=Cc2ccccc2)C(=O)c2ccccc2)C1` (stereo not drawn) it is 65 °C. In turn, `CCCCc1nc(Cl)c(CO)n1Cc1ccc(-c2ccccc2-c2nn[nH]n2)cc1` had a melting point of 184 °C. The figure for `CCC(C)c1cc([N+](=O)[O-])cc([N+](=O)[O-])c1OC(=O)OC(C)C` (stereo not drawn) is 61.5 °C; for `c1cnc2ncncc2n1` it is 140 °C; for `Cc1cc(Br)cc(C)c1N=C=S` it is 79.5 °C.

On to `COc1ccc(C(=CC(=O)N2CCOCC2)c2ccc(Cl)cc2)cc1OC`, for which the melting point worked out at 148 °C. The figure for `COC(=O)c1cnc(SC)n1C` is 53 to 55 °C; for `COC(=O)C1CC(=O)CN1C(=O)OC(C)(C)C` (stereo not drawn) it is 38 °C. The figure for `Nc1ccc2c(c1)CCCC2=O` is 130 to 131 °C.

As for `CN1CCCC1C(O)(c1ccccc1)c1ccccc1` (stereo not drawn), the melting point is 66 to 69 °C. Under `CCCCCCCOc1ccc(N)cc1` stands 45 °C; under `Cc1nn(C)c2ncc3c(=O)[nH]n(C)c3c12`, 300 °C.

For the compound `O=C(O)c1ccc(F)c(F)c1`, the melting point lay in the range of 122 to 125 °C. Under `CN(C)c1ccc(CCC2CCc3ccccc3N2)cc1` (stereo not drawn) stands 68 to 68.5 °C; under `Nc1ccc(OCCN2CCOCC2)cc1`, 53 to 57 °C. With `O=Cc1ccc(-n2cncn2)cc1`, the melting point fell in the range of 147 to 149 °C. Under `Cn1ccc2ccc(C(=O)O)cc21` stands 197 °C; under `N#CC(C#N)=Cc1ccco1`, 70 to 74 °C; under `Cc1cc2nc3[nH]c(=O)[nH]c(=O)c3nc2cc1C`, 300 °C. The figure for `NNC(=O)Cc1nc(-c2cnccn2)no1` is 184 to 186 °C; for `Nc1ncc(Br)cn1` it is 239 to 244 °C; for `Cc1csc(C)c1C` it is -26.2 °C. The figure for `O=S(=O)(NO)c1ccccc1` is 120 to 125 °C; for `CC(=O)c1ccc(NC(=O)CCl)cc1` it is 150 to 151 °C; for `N#C/C(=C\c1ccc(Cl)cc1Cl)c1nc(-c2cccc3ccccc23)cs1` it is 132 °C. As for `Cc1cc(Cl)[nH]n1`, the melting point is 118 °C. Under `O=[N+]([O-])c1ccc(-c2csc3nc4ccccc4n23)cc1` stands 232 to 235 °C; under `COC(=O)c1sccc1Oc1ccc(Cl)cc1[N+](=O)[O-]`, 125 to 128 °C.

On to `Clc1nccnc1Cl`, for which the melting point lay within 22.5 to 24.5 °C. In turn, `C=CCNC(=S)Nc1sc2c(c1C(=O)OCC)CCN(Cc1ccccc1)C2` came in with a melting point of 138 to 139 °C. In the case of `Cc1ccc([N+](=O)[O-])c(C)n1`, the melting point is 32 to 38 °C. Under `O=C(/C=C/c1ccc(OCC2CO2)cc1)c1ccccc1` (stereo not drawn) stands 92 °C; under `O=Cc1ccc(N2CCCC2)cn1`, 101 to 102 °C.

On to `CN(C)c1ccc(C=CC#N)cc1`, for which the melting point lay in the range of 165 to 168 °C.

Compound `CCC(Cl)C(C)Cl` (stereo not drawn) came in with a melting point of -77.3 °C.

As for `COc1ccc(OC)c(C=CC(=O)n2cnc3c(N)ncnc32)c1`, the melting point is 260 to 262 °C. In turn, `C1=CCC(c2ccccc2)(c2ccccc2)C=C1` returned a melting point of 57 °C.

Regarding `ON=C1CCCCCCC1`, the melting point turned out to be 37 °C.

Take `O=C(CCCc1ccccc1)c1ccccc1`: the melting point lay within 55 to 59 °C. The figure for `O=[N+]([O-])c1ccc(OS(=O)(=O)C(F)(F)F)cc1` is 52 °C. Under `O=C(O)Cc1ccccc1CC(=O)O` stands 151 °C. Under `Cc1ccc(-c2cc(N/N=C(/C(=O)c3cccs3)C(=O)C(F)(F)F)[nH]n2)cc1` stands 220 °C; under `CN1CCc2cc3c(cc2C(=O)Cc2ccc4c(c2C1)OCO4)OCO3`, 208 °C; under `N=c1oc2ccccc2cc1-c1nc2ccccc2s1`, 186 °C. Turning to `O=C(C(Cl)Cl)N(CCO)Cc1ccc(Oc2ccc([N+](=O)[O-])cc2)cc1`, the melting point is 136 °C. The figure for `COC(=O)c1ccc(C(=O)OC)c(I)c1` is 81 to 82 °C; for `CCNCC(O)c1cccc(O)c1` (stereo not drawn) it is 148 °C; for `O=C=Nc1cccc(-c2ncccn2)c1` it is 45 to 47 °C. The figure for `CCCCCCCCC(NC(=O)OCC1c2ccccc2-c2ccccc21)C(=O)O` (stereo not drawn) is 143 °C; for `O=C1CC(C(F)(F)F)=NN1c1ccccc1` it is 193 °C.
